Results as given in the supplement of paper PMC10331698.
± gives the standard deviation of the averaged measurements.

Experiments:
Assay in all cases: level (log10 ratio to DMSO vehicle control); higher = higher biomarker level / cell amount than vehicle control
[1] = compound: FC(F)(F)C(F)(F)C(F)(F)C(F)(F)CCI [1H,1H,2H,2H-Perfluorohexyl iodide]; conditions: in DMSO
Experimental: (§1)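 BioMAP Diversity Plus panel of 12 human primary cell co-culture systems (3C, 4H, LPS, SAg, BT, BF4T, BE3C, CASM3C, HDF3CGF, KF3CT, MyoF, Mphg). Compounds were added 1 h before stimulation and left for 24 h (MyoF 48 h; BT 72 h for soluble read-outs or 6 d for IgG). Biomarkers were read by ELISA, cytotoxicity by SRB, PBMC viability and proliferation by Alamar Blue. Each well value was divided by the mean of 8 DMSO control wells on the same plate and log10 transformed; duplicate blinded samples were tested at 4 concentrations.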

[2] = compound: O=P(O)(O)CCC(F)(F)C(F)(F)C(F)(F)C(F)(F)C(F)(F)C(F)(F)F [2-(Perfluorohexyl)ethylphosphonic acid]; conditions: in DMSO
Experimental: as §1

[3] = compound: C=CC(=O)OCC(F)(F)C(F)(F)C(F)(F)C(F)(F)COC(=O)C=C [1H,1H,6H,6H-Perfluorohexane-1,6-diol diacrylate]; conditions: 6700 nM; in DMSO
Experimental: as §1

[4] = compound: CN(Cc1cnc2nc(N)nc(N)c2n1)c1ccc(C(=O)N[C@@H](CCC(=O)O)C(=O)O)cc1 [Methotrexate]; conditions: in DMSO
Experimental: as §1

[5] = compound: Cc1ccc(S(=O)(=O)OCC(F)(F)C(F)(F)C(F)(F)C(F)(F)C(F)(F)C(F)F)cc1 [1H,1H,7H-Perfluoroheptyl 4-methylbenzenesulfonate]; conditions: in DMSO
Experimental: as §1

[6] = compound: OCC(F)(F)C(F)(F)C(F)(F)C(F)(F)C(F)(F)C(F)(F)C(F)(F)C(F)(F)CO [1H,1H,10H,10H-Perfluorodecane-1,10-diol]; conditions: in DMSO
Experimental: as §1

[7] = compound: O=C(O)C(F)(F)C(F)(F)C(F)(F)C(F)(F)C(F)(F)C(F)(F)C(F)(F)F [Ammonium perfluorooctanoate]; conditions: in DMSO
Experimental: as §1

Row | Test System | level (log10) ([1]; 6700 nM) | level (log10) ([1]; 20000 nM) | level (log10) ([1]; 60000 nM) | level (log10) ([2]; 6700 nM) | level (log10) ([2]; 20000 nM) | level (log10) ([2]; 60000 nM) | level (log10) [3] | level (log10) ([4]; 1500 nM) | level (log10) ([4]; 4400 nM) | level (log10) ([4]; 13000 nM) | level (log10) ([4]; 40000 nM) | level (log10) ([5]; 6700 nM) | level (log10) ([5]; 20000 nM) | level (log10) ([5]; 60000 nM) | level (log10) ([6]; 6700 nM) | level (log10) ([6]; 20000 nM) | level (log10) ([6]; 60000 nM) | level (log10) ([7]; 6700 nM) | level (log10) ([7]; 20000 nM) | level (log10) ([7]; 60000 nM)
1 | BE3C:CD87/uPAR | -0.0105 ± 0.019 | -0.011 | 0.0285 ± 0.011 | -0.035 ± 0.065 | -0.029 ± 0.047 | -0.0125 ± 0.12 | 0.014 ± 0.023 | 0.0225 ± 0.005 | -0.0145 ± 0.011 | 0 ± 0.016 | 0.0145 ± 0.015 | 0.026 ± 0.017 | -0.004 ± 0.0085 | 0.005 ± 0.033 | -0.013 ± 0.011 | -0.042 ± 0.024 | -0.337 | 0.0105 ± 0.022 | 0.0315 ± 0.0035 | 0.0125 ± 0.023
2 | BE3C:CXCL8/IL-8 | 0.0225 ± 0.0078 | 0.016 ± 0.025 | 0.0525 ± 0.057 | -0.064 ± 0.017 | -0.0635 ± 0.0064 | -0.0555 ± 0.06 | -0.095 ± 0.013 | 0.0795 ± 0.069 | 0.035 ± 0.089 | 0.053 ± 0.057 | 0.048 ± 0.11 | -0.0345 ± 0.042 | -0.12 ± 0.059 | -0.126 ± 0.028 | -0.078 ± 0.0099 | -0.098 ± 0.025 | -0.127 | 0.043 ± 0.021 | 0.0095 ± 0.039 | -0.066 ± 0.04
3 | BE3C:CXCL9/MIG | 0.006 ± 0.0085 | 0.002 ± 0.016 | 0.0165 ± 0.028 | -0.008 ± 0.0057 | -0.0075 ± 0.0021 | 0.003 ± 0.02 | -0.0075 ± 0.011 | 0.006 ± 0.0071 | 0.013 ± 0.0028 | 0.013 ± 0.014 | 0.01 ± 0.0057 | 0.005 ± 0.016 | -0.001 ± 0.0028 | 0.0005 ± 0.021 | -0.0105 ± 0.0021 | -0.0495 ± 0.0021 | -0.53 | 0.008 ± 0.011 | -0.003 ± 0.0042 | -0.003 ± 0.0028
4 | BE3C:CXCL10/IP-10 | 0.008 ± 0.0099 | 0.0015 ± 0.0092 | 0.001 ± 0.021 | -0.056 ± 0.058 | -0.057 ± 0.067 | -0.0455 ± 0.09 | -0.0095 ± 0.0064 | 0.003 ± 0.051 | 0.0105 ± 0.032 | 0.0195 ± 0.019 | 0.011 ± 0.038 | -0.0095 ± 0.0092 | -0.033 ± 0.016 | -0.015 ± 0.0014 | -0.0205 ± 0.013 | -0.19 ± 0.088 | -0.94 | 0.0065 ± 0.015 | -0.0135 ± 0.00071 | -0.163 ± 0.061
5 | BE3C:CXCL11/I-TAC | -0.001 ± 0.0014 | 0.0005 ± 0.0035 | 0.005 ± 0.0099 | -0.0205 ± 0.0078 | -0.0235 ± 0.0064 | -0.0415 ± 0.032 | -0.0115 ± 0.0021 | 0.017 ± 0.027 | 0.0135 ± 0.029 | 0.0225 ± 0.015 | 0.016 ± 0.031 | -0.0205 ± 0.0064 | -0.0385 ± 0.00071 | -0.0185 ± 0.019 | -0.0145 ± 0.0078 | -0.149 ± 0.025 | -0.901 | 0.0095 ± 0.018 | 0.0125 ± 0.019 | -0.0295 ± 0.0035
6 | BE3C:EGFR | 0.011 ± 0.047 | -0.0005 ± 0.046 | -0.0275 ± 0.063 | -0.0045 ± 0.0021 | -0.015 ± 0.014 | 0.0005 ± 0.022 | -0.034 ± 0.0099 | 0.023 ± 0.028 | 0.002 ± 0.013 | 0.0085 ± 0.0092 | 0.0155 ± 0.037 | -0.0255 ± 0.0035 | -0.03 ± 0.035 | -0.027 ± 0.0028 | -0.031 ± 0.0085 | -0.042 | -0.102 | -0.006 ± 0.0028 | 0.001 ± 0.028 | -0.022 ± 0.013
7 | BE3C:HLA-DR | -0.0105 ± 0.0064 | 0 ± 0.0014 | -0.005 ± 0.0042 | -0.0045 ± 0.018 | -0.012 ± 0.021 | 0.01 ± 0.038 | -0.048 ± 0.0071 | -0.0105 ± 0.00071 | -0.0235 ± 0.0064 | 0.013 ± 0.011 | -0.0145 ± 0.022 | -0.0155 ± 0.005 | -0.0195 ± 0.012 | -0.025 ± 0.0014 | -0.0495 ± 0.019 | -0.174 ± 0.022 | -0.517 | -0.019 ± 0.0071 | -0.0325 ± 0.012 | -0.068 ± 0.017
8 | BE3C:IL-1alpha | 0.015 ± 0.017 | 0.024 ± 0.0042 | 0.045 ± 0.023 | -0.01 ± 0.0014 | -0.0245 ± 0.005 | -0.007 ± 0.023 | -0.0735 ± 0.03 | -0.012 ± 0.0085 | -0.0255 ± 0.023 | -0.0095 ± 0.054 | 0.007 ± 0.033 | 0.01 ± 0.0085 | -0.003 ± 0.018 | 0.071 ± 0.061 | -0.0035 ± 0.015 | -0.022 ± 0.0099 | -0.026 | -0.008 ± 0.024 | -0.019 ± 0.021 | -0.028 ± 0.011
9 | BF4T:CCL2/MCP-1 | 0.013 ± 0.059 | 0.026 ± 0.065 | 0.0295 ± 0.13 | 0.001 ± 0.0028 | 0.0015 ± 0.023 | -0.009 ± 0.0028 | -0.055 ± 0.02 | 0.0115 ± 0.022 | 0.0135 ± 0.0035 | -0.022 ± 0.0028 | 0.0055 ± 0.029 | -0.026 ± 0.018 | -0.124 ± 0.0085 | -0.0585 ± 0.022 | -0.0755 ± 0.05 | -0.273 ± 0.049 | -0.329 | -0.0015 ± 0.013 | 0.0005 ± 0.036 | -0.016 ± 0.069
10 | BF4T:CCL26/Eotaxin-3 | -0.032 ± 0.017 | -0.0525 ± 0.036 | -0.098 ± 0.073 | -0.0135 ± 0.022 | -0.04 ± 0.0099 | -0.034 ± 0.079 | -0.055 ± 0.025 | 0.057 ± 0.0014 | -0.005 ± 0.14 | 0.0465 ± 0.029 | 0.031 ± 0.072 | -0.0095 ± 0.046 | -0.077 ± 0.068 | -0.095 ± 0.018 | -0.0415 ± 0.042 | -0.134 ± 0.0021 | -0.255 | 0.004 ± 0.02 | -0.044 ± 0.025 | -0.086
11 | BF4T:CD54/ICAM-1 | -0.0025 ± 0.0035 | -0.0095 ± 0.0021 | -0.002 ± 0.0057 | -0.022 ± 0.018 | -0.0245 ± 0.00071 | -0.0125 ± 0.0092 | -0.0575 ± 0.0021 | 0.001 ± 0.0099 | -0.0135 ± 0.019 | 0.009 ± 0.0085 | 0.0095 ± 0.011 | -0.0055 ± 0.018 | -0.01 ± 0.0028 | -0.021 ± 0.0085 | -0.031 ± 0.02 | -0.091 ± 0.0071 | -0.138 | -0.009 ± 0.02 | -0.016 ± 0.0014 | -0.0415 ± 0.023
12 | BF4T:CD90 | -0.011 ± 0.0085 | -0.018 ± 0.021 | -0.0075 ± 0.005 | -0.0185 ± 0.023 | -0.0165 ± 0.005 | -0.008 ± 0.031 | -0.0265 ± 0.0021 | 0.001 ± 0.0014 | -0.0145 ± 0.0035 | -0.006 ± 0.016 | 0.0235 ± 0.012 | -0.0095 ± 0.0064 | -0.015 ± 0.014 | -0.0175 ± 0.0092 | -0.051 ± 0.0014 | -0.071 ± 0.0099 | -0.018 | -0.007 ± 0.0028 | -0.015 ± 0.0028 | -0.001 ± 0.0028
13 | BF4T:CD106/VCAM-1 | -0.0245 ± 0.0021 | -0.044 ± 0.025 | -0.0065 ± 0.086 | -0.0195 ± 0.03 | -0.0165 ± 0.016 | 0.0055 ± 0.047 | -0.132 ± 0.016 | 0.014 ± 0.024 | 0.0165 ± 0.029 | 0.0245 ± 0.016 | 0.0245 ± 0.011 | 0.009 ± 0.042 | 0.024 ± 0.0014 | -0.0055 ± 0.04 | -0.012 ± 0.023 | -0.139 ± 0.037 | -0.145 | -0.0315 ± 0.021 | -0.0315 ± 0.0064 | -0.032 ± 0.017
14 | BF4T:CXCL8/IL-8 | 0.0135 ± 0.025 | 0.0195 ± 0.00071 | 0.0355 ± 0.03 | -0.0405 ± 0.00071 | -0.0595 ± 0.0064 | -0.034 ± 0.0085 | -0.0265 ± 0.013 | 0.035 ± 0.027 | 0.027 ± 0.071 | 0.041 ± 0.057 | 0.0365 ± 0.12 | -0.0195 ± 0.012 | -0.0615 ± 0.012 | -0.0515 ± 0.011 | 0.0005 ± 0.0064 | 0.0095 ± 0.00071 | 0.004 | 0.0135 ± 0.047 | 0.043 ± 0.058 | 0.04 ± 0.088
